# Measurements from patent publication US4666902A, “Tetrahydropyridazinone derivatives, processes for their preparation and their use” (Cassella Aktiengesellschaft, priority 1983, dated 1987).
# Test system: experimental thrombosis, arterial
# Test: Arterial thrombotic protection, experimental thrombosis in vivo (Meng and Seuter)
# Settings: 0.3 mg/kg i.p.
# Experimental: (§1) The values of the arterial thrombotic protection given in table 1 were determined in rats according to the method of Meng and Seuter (Naunyn-Schmiedeberg's Arch. Pharmacol. 301, 115 (1977)), those of the venous thrombotic protection were determined in rabbits according to the Harbauer method ("Versuche zur Entwicklung eines standardisierten venosen Thrombosemodells am Kaninchen" ("Tests for developing a standardized venous thrombotic model in rabbits"), 17th Angiologic Symposium, Kitzbuhel (1982)).
# (§2) Influence on the experimental thrombosis in vivo
row,SMILES,Thrombotic Protection % arterial (rat) [%]
1,CC(=O)Nc1ccc(C2=NNC(=O)CC2CO)cc1 (centres unmarked) [drawing 46],30

# Same assay, conditions: 1 mg/kg i.p.
row,SMILES,Thrombotic Protection % arterial (rat) [%]
1,CC(=O)Nc1ccc(C2=NNC(=O)CC2CO)cc1 (centres unmarked) [drawing 46],80
2,O=C1CC(CO)C(c2ccc[nH]2)=NN1 (centres unmarked) [drawing 50],42

# Test system: experimental thrombosis, venous
# Test: Venous thrombotic protection, experimental thrombosis in vivo (Harbauer)
# Settings: 0.3 mg/kg i.p.
# Experimental: as §1, §2
row,SMILES,Thrombotic Protection % venous (rabbit) [%]
1,CC(=O)Nc1ccc(C2=NNC(=O)CC2CO)cc1 (centres unmarked) [drawing 46],60

# Same assay, conditions: 1 mg/kg i.p.
row,SMILES,Thrombotic Protection % venous (rabbit) [%]
1,CC(=O)Nc1ccc(C2=NNC(=O)CC2CO)cc1 (centres unmarked) [drawing 46],78

# Same assay, conditions: 3 mg/kg i.p.
row,SMILES,Thrombotic Protection % venous (rabbit) [%]
1,O=C1CC(CO)C(c2ccc(OCCn3ccnc3)cc2)=NN1 (centres unmarked) [drawing 47],57

# Same assay, conditions: 10 mg/kg i.p.
row,SMILES,Thrombotic Protection % venous (rabbit) [%]
1,O=C1CC(CO)C(c2ccc(Cl)cc2)=NN1 (centres unmarked) [drawing 44],57
2,Cc1nnc(COc2ccc(C3=NNC(=O)CC3CO)cc2)o1 (centres unmarked) [drawing 45],50
3,O=C1CC(CO)C(c2ccc(OCCn3ccnc3)cc2)=NN1 (centres unmarked) [drawing 47],86
4,O=C1CC(CO)C(c2ccc(N3CCCC3=O)cc2)=NN1 (centres unmarked) [drawing 48],83

# Test system: action of arachidonic acid
# Test: Influence on the action of arachidonic acid in vivo under anesthesia (Lefort and Vargaftig)
# Design: species or system guinea pig; key: -: no action; (+): weak; +: medium; ++: strong; +++: very strong
# Settings: 0.1-1 mg/kg i.v.
# Experimental: The values of Table 2 showing the influence on the action of arachidonic acid were determined in guinea pigs under anesthesia using the Lefort and Vargaftig method (Br. J. Pharmac. 63, 35 (1978)).
# Influence on the action of arachidonic acid (arachidonic acid
# […] i.v.) in vivo in guinea pigs under anesthesia
SMILES,PGI2 Effect: Lowering of blood pressure,TXA2 Effect: Bronchospasm,TXA2 Effect: Thrombocytopenia
CC(=O)Nc1ccc(C2=NNC(=O)CC2CO)cc1 (centres unmarked) [drawing 65],++,++,++

# Same assay, conditions: 0.3-3 mg/kg i.v.
SMILES,PGI2 Effect: Lowering of blood pressure,TXA2 Effect: Bronchospasm,TXA2 Effect: Thrombocytopenia
O=C1CC(CO)C(c2ccc(N3CCCC3=O)cc2)=NN1 (centres unmarked) [drawing 62],+,+,++
COc1ccc(C2=NNC(=O)CC2CO)cc1OC (centres unmarked) [drawing 69],+++,++,++

# Same assay, conditions: 1-10 mg/kg i.v.
SMILES,PGI2 Effect: Lowering of blood pressure,TXA2 Effect: Bronchospasm,TXA2 Effect: Thrombocytopenia
Cc1cc(COc2ccc(C3=NNC(=O)CC3CO)cc2)[nH]c(=O)c1 (centres unmarked),-,(+),(+)
O=C1CC(CO)C(c2ccco2)=NN1 (centres unmarked),-,(+),(+)
O=C1CC(CO)C(c2ccccc2)=NN1 (centres unmarked) [drawing 53],(+),(+),-
Cc1ccc(C2=NNC(=O)CC2CO)cc1 (centres unmarked) [drawing 54],(+),(+),(+)
COc1ccc(C2=NNC(=O)CC2CO)cc1 (centres unmarked) [drawing 55],++,(+),-
O=C1CC(CO)C(c2ccc(Cl)cc2)=NN1 (centres unmarked) [drawing 56],(+),(+),(+)
O=C1CC(CO)C(c2cccc([N+](=O)[O-])c2)=NN1 (centres unmarked) [drawing 57],(+ ),++,+
Cc1nnc(COc2ccc(C3=NNC(=O)CC3CO)cc2)o1 (centres unmarked) [drawing 58],+,++,++
COc1ccc(C2=NNC(=O)CC2COC(=O)c2cccnc2)cc1OC (centres unmarked) [drawing 59],-,(+),(+)
CC(=O)Nc1ccc(C2=NN(C)C(=O)CC2CO)cc1 (centres unmarked) [drawing 61],(+),(+),(+)
O=C1CC(CO)C(c2ccc[nH]2)=NN1 (centres unmarked) [drawing 63],(+),++,+++
O=C1CC(CO)C(c2ccc(OCCn3ccnc3)cc2)=NN1 (centres unmarked) [drawing 66],(+),+,++
O=C1CC(CO)C(c2c[nH]c3ccccc23)=NN1 (centres unmarked) [drawing 70],(+),+,+++
COc1ccc(C2=NNC(=O)CC2COC(=O)COc2ccc(Cl)cc2)cc1OC (centres unmarked) [drawing 71],+,(+),-
O=C1CC(CO)C(c2ccc(OCc3cccnc3)cc2)=NN1 (centres unmarked) [drawing 73],-,+,+

# Same assay, conditions: 3-10 mg/kg i.v.
SMILES,PGI2 Effect: Lowering of blood pressure,TXA2 Effect: Bronchospasm,TXA2 Effect: Thrombocytopenia
O=C1CC(CO)C(c2cccs2)=NN1 (centres unmarked) [drawing 68],(+),(+),(+)

# Test system: thrombocyte aggregation induced by arachidonic acid
# Test: Inhibition of thrombocyte aggregation in vitro (Born), arachidonic acid
# Type: cell-based
# Settings: induced by 0.36 mM of arachidonic acid
# Experimental: (§3) The values of tables 3 to 5 showing the inhibition of the thrombocytic aggregation were determined in vitro according to the Born method (J. Physiol. 162 67 P (1962)) using arachidonic acid, thrombin or adenosine diphosphate as aggregation agent.
# Inhibition of thrombocyte aggregation in vitro (according to BORN)
# induced by 0.36 mM of arachidonic acid
row,SMILES,IC50 [µM]
1,Cc1cc(COc2ccc(C3=NN(C)C(=O)CC3CO)cc2)[nH]c(=O)c1 (centres unmarked),15
2,COc1ccc(C2=NN(C)C(=O)CC2CO)cc1OC (centres unmarked),40
3,COc1cc(C2=NNC(=O)CC2CO)cc(OC)c1OC (centres unmarked),6
4,O=C1CC(CO)C(c2ccccc2)=NN1 (centres unmarked) [drawing 75],5
5,O=C1CC(CO)C(c2cccc([N+](=O)[O-])c2)=NN1 (centres unmarked) [drawing 78],1.5
6,Cc1nnc(COc2ccc(C3=NNC(=O)CC3CO)cc2)o1 (centres unmarked) [drawing 79],1
7,O=C1CC(CO)C(c2ccc(OCCn3ccnc3)cc2)=NN1 (centres unmarked) [drawing 80],2
8,N#Cc1ccc(C2=NNC(=O)CC2CO)cc1 (centres unmarked) [drawing 81],0.3
9,CC(=O)Nc1ccc(C2=NN(C)C(=O)CC2CO)cc1 (centres unmarked) [drawing 82],> 100
10,COc1ccc(C2=NNC(=O)CC2COC(=O)COc2ccc(Cl)cc2)cc1OC (centres unmarked) [drawing 83],4
11,O=C1CC(CO)C(c2ccc(OCc3cccnc3)cc2)=NN1 (centres unmarked) [drawing 85],0.45
12,O=C1CC(CO)C(c2cccs2)=NN1 (centres unmarked) [drawing 86],50
13,O=C1CC(CO)C(c2ccc(N3CCCC3=O)cc2)=NN1 (centres unmarked) [drawing 87],0.4
14,COc1ccc(C2=NNC(=O)CC2CO)cc1OC (centres unmarked) [drawing 88],0.6
15,O=C1CC(CO)C(c2ccc(Cl)cc2)=NN1 (centres unmarked) [drawing 90],0.9
16,CC(=O)Nc1ccc(C2=NNC(=O)CC2CO)cc1 (centres unmarked) [drawing 91],0.2
17,O=C1CC(CO)C(c2c[nH]c3ccccc23)=NN1 (centres unmarked) [drawing 93],0.55
18,COc1ccc(C2=NNC(=O)CC2COC(=O)c2cccnc2)cc1OC (centres unmarked) [drawing 94],30

# Test system: thrombocyte aggregation induced by thrombin
# Test: Inhibition of thrombocyte aggregation in vitro (Born), thrombin
# Type: cell-based
# Settings: induced by 0.2-0.4 N.I.H. units/ml (thrombin)
# Experimental: as §3
# Inhibition of thrombocyte aggregation in vitro
# (according to BORN) induced by 0.2-0.4 N.I.H. units/ml
row,SMILES,IC50 [µM]
1,COc1ccc(C2=NNC(=O)CC2CO)cc1 (centres unmarked) [drawing 98],2.5
2,O=C1CC(CO)C(c2ccc(Cl)cc2)=NN1 (centres unmarked) [drawing 99],6
3,CC(=O)Nc1ccc(C2=NNC(=O)CC2CO)cc1 (centres unmarked) [drawing 100],0.7
4,COc1ccc(C2=NNC(=O)CC2CO)cc1OC (centres unmarked) [drawing 101],2
5,COc1ccc(C2=NNC(=O)CC2COC(=O)COc2ccc(Cl)cc2)cc1OC (centres unmarked) [drawing 102],> 100

# Test system: thrombocyte aggregation induced by ADP
# Test: Inhibition of thrombocyte aggregation in vitro (Born), ADP
# Type: cell-based
# Settings: induced by 10 μM ADP
# Experimental: as §3
# Inhibition of thrombocyte aggregation in vitro (according to
# BORN) induced by 10 μM ADP
row,SMILES,IC50 [µM]
1,O=C1CC(CO)C(c2ccccc2)=NN1 (centres unmarked) [drawing 105],> 100
2,Cc1ccc(C2=NNC(=O)CC2CO)cc1 (centres unmarked) [drawing 106],150
3,COc1ccc(C2=NNC(=O)CC2CO)cc1 (centres unmarked) [drawing 107],50
4,O=C1CC(CO)C(c2ccc(Cl)cc2)=NN1 (centres unmarked) [drawing 108],70
5,CC(=O)Nc1ccc(C2=NNC(=O)CC2CO)cc1 (centres unmarked) [drawing 109],10
6,COc1ccc(C2=NNC(=O)CC2CO)cc1OC (centres unmarked) [drawing 110],9
7,Cc1nnc(COc2ccc(C3=NNC(=O)CC3CO)cc2)o1 (centres unmarked) [drawing 111],20
8,O=C1CC(CO)C(c2ccc(OCCn3ccnc3)cc2)=NN1 (centres unmarked) [drawing 112],150
9,O=C1CC(CO)C(c2ccc(N3CCCC3=O)cc2)=NN1 (centres unmarked) [drawing 113],20
10,O=C1CC(CO)C(c2ccc(OCc3cccnc3)cc2)=NN1 (centres unmarked) [drawing 114],36
11,N#Cc1ccc(C2=NNC(=O)CC2CO)cc1 (centres unmarked) [drawing 115],20
